Measured values as given in patent US4607114A, “Novel platinum complexes” (Nippon Kayaku Kabushiki Kaisha, priority 1983, dated 1986).
Where two headings read alike, the source gives them in different places.

Tests used:
[1] = background statement; cited from earlier work
[2] = test system: mouse leukemia L-1210; assay: Antitumor activity on mouse leukemia L-1210 (T/C percentage of survival); assay type: in vivo; settings: i.p. once a day for 5 days, female CDF1 mouse
Method: (2) Test for antitumor activity on mouse leukemia L-1210.
Into 6-weeks-old female CDF1 mouse were inoculated 1×10^5 L-1210 cells, and each drug was administered intraperitoneally once a day for 5 consecutive days, starting 24 hours after the inoculation. Physiological saline was administered to a control group. From the average survival periods of the drug-treated group and the control group (abbreviated as T and C, respectively), T/C percentage (T/C×100) was determined.

[3] = Solubility in water
[4] = test system: mouse leukemia L-1210 cells; assay: Inhibitory activity on multiplication of mouse leukemia L-1210 initially cultured cells; assay type: cell-based; settings: 48 hours, 37° C., RPMI 1640 with 10% bovine fetal serum
Method: (1) Test for inhibitory activity on multiplication of mouse leukemia L-1210 initially cultured cells.
Mouse leukemia L-1210 cells collected from the abdominal cavities of DBA/2 mouse were incubated in a 5% CO2 incubator at 37° C. for 48 hours by using a RPMI 1640 medium containing 10% of bovine fetal serum and 5 μM of 2-mercaptoethanol.

**Q.** For `N.N.[Cl][Pt][Cl]` [cis-Platin, cis-dichlorodiammineplatinum], which carcinostatic effect [1] is on record?
**A.** The carcinostatic effect was “very excellent”.

**Q.** With `CC1(C)C[NH][Pt]([Cl])([Cl])[NH]1` [compound 1, cis-Dichloro-1,2-diamino-2-methylpropane platinum] as the compound, how does the “Antitumor effect shown by T/C percentage” value ([2]; 1 mg/kg) read?
**A.** The value was 133%.

**Q.** And the “Antitumor effect shown by T/C percentage” value ([2]; 2 mg/kg)?
**A.** Its value is 171%.

**Q.** And the “Antitumor effect shown by T/C percentage” value ([2]; 4 mg/kg)?
**A.** Its value is 206%.

**Q.** What about the “Antitumor effect shown by T/C percentage” value ([2]; 8 mg/kg) of the same compound?
**A.** Its value is 124%.

**Q.** And the “Antitumor effect shown by T/C percentage” value ([2]; 16 mg/kg)?
**A.** Its value is 51%.

**Q.** What about the Solubility in water of the same compound?
**A.** The Solubility in water was 5000 µg/mL.

**Q.** For `CC(C)(N)CN.[Cl][Pt]([Cl])([Cl])[Cl]` [compound 3, cis-Tetrachloro-1,2-diamino-2-methylpropane platinum], which “Antitumor effect shown by T/C percentage” value ([2]; 1 mg/kg) is on record?
**A.** The value was 127%.

**Q.** What about the “Antitumor effect shown by T/C percentage” value ([2]; 2 mg/kg) of the same compound?
**A.** The value was 139%.

**Q.** And the “Antitumor effect shown by T/C percentage” value ([2]; 4 mg/kg)?
**A.** Its value is 162%.

**Q.** And the “Antitumor effect shown by T/C percentage” value ([2]; 8 mg/kg)?
**A.** The value was 154%.

**Q.** What about the “Antitumor effect shown by T/C percentage” value ([2]; 16 mg/kg) of the same compound?
**A.** The value was 60%.

**Q.** What about the Solubility in water of the same compound?
**A.** Its Solubility in water is over 12000 µg/mL.

**Q.** For `CCC(C)(N)CN.[Cl][Pt][Cl]` (stereo not drawn) [compound 4, cis-Dichloro-1,2-diamino-2-methylbutane platinum], which Solubility in water is on record?
**A.** Its Solubility in water is 3500 µg/mL.

**Q.** Which results are given for `CCC(N)(CC)CN.O=C([O-])C(=O)[O-].[Pt+2]` [compound 6, cis-Oxalato-1,2-diamino-2-ethylbutane platinum]?
**A.** Antitumor effect shown by T/C percentage ([2]; 1 mg/kg): 130%; Antitumor effect shown by T/C percentage ([2]; 2 mg/kg): 152%; Antitumor effect shown by T/C percentage ([2]; 4 mg/kg): 226%; Antitumor effect shown by T/C percentage ([2]; 8 mg/kg): 206%; Antitumor effect shown by T/C percentage ([2]; 16 mg/kg): 211%

**Q.** With `CCC(N)(CC)CN.[OH][Pt]([OH])([Cl])[Cl]` [compound 7, cis-Dichloro-trans-dihydroxy-1,2-diamino-2-ethylbutane platinum] as the compound, how does the Solubility in water read?
**A.** Its Solubility in water is 13000 µg/mL.

**Q.** With `CCC(N)(CC)CN.[Cl][Pt]([Cl])([Cl])[Cl]` [compound 8, cis-Tetrachloro-1,2-diamino-2-ethylbutane platinum] as the compound, how does the Solubility in water read?
**A.** The Solubility in water was 5000 µg/mL.

**Q.** For `CCC1C(=O)[O][Pt]2([NH]CC(CC)(CC)[NH]2)[O]C1=O` (stereo not drawn) [compound 9, cis-2-Ethylmalonato-1,2-diamino-2-ethylbutane platinum], which Solubility in water is on record?
**A.** The Solubility in water was 25000 µg/mL.

**Q.** Which Solubility in water does the source give for `CCC(N)(CC)CN.O=C([O-])C(O)C(=O)[O-].[Pt+2]` [compound 10, cis-2-Hydroxymalonato-1,2-diamino-2-ethylbutane platinum] here?
**A.** The Solubility in water was 16000 µg/mL.

**Q.** Which “Antitumor effect shown by T/C percentage” value ([2]; 4 mg/kg) does the source give for `NCC1(N)CCCCC1.[OH][Pt]([OH])([Cl])[Cl]` [compound 11, cis-Dichloro-trans-dihydroxy-1-amino-1-aminomethylcyclohexane platinum] here?
**A.** The value was 162%.

**Q.** What about the “Antitumor effect shown by T/C percentage” value ([2]; 8 mg/kg) of the same compound?
**A.** The value was 237%.

**Q.** What about the “Antitumor effect shown by T/C percentage” value ([2]; 16 mg/kg) of the same compound?
**A.** The value was 275%.

**Q.** And the “Antitumor effect shown by T/C percentage” value ([2]; 32 mg/kg)?
**A.** The value was 108%.

**Q.** And the “Antitumor effect shown by T/C percentage” value ([2]; 64 mg/kg)?
**A.** The value was 67%.

**Q.** And the Solubility in water?
**A.** Its Solubility in water is over 2000 µg/mL.

**Q.** For `NCC1(N)CCCCC1.[Cl][Pt]([Cl])([Cl])[Cl]` [compound 12, cis-Tetrachloro-1-amino-1-aminomethylcyclohexane platinum], which “Antitumor effect shown by T/C percentage” value ([2]; 0.5 mg/kg) is on record?
**A.** The value was 137%.

**Q.** What about the “Antitumor effect shown by T/C percentage” value ([2]; 1 mg/kg) of the same compound?
**A.** Its value is 200%.

**Q.** And the “Antitumor effect shown by T/C percentage” value ([2]; 2 mg/kg)?
**A.** Its value is 259%.

**Q.** What about the “Antitumor effect shown by T/C percentage” value ([2]; 4 mg/kg) of the same compound?
**A.** The value was 224%.

**Q.** And the “Antitumor effect shown by T/C percentage” value ([2]; 8 mg/kg)?
**A.** The value was 95%.

**Q.** What about the Solubility in water of the same compound?
**A.** Its Solubility in water is over 15000 µg/mL.

**Q.** For `O=C(CCl)[O][Pt]1([O]C(=O)CCl)[NH]CC2(CCCCC2)[NH]1` [compound 15, cis-bis(Chloroacetato)-1-amino-1-aminomethylcyclohexane platinum], which “Antitumor effect shown by T/C percentage” value ([2]; 0.5 mg/kg) is on record?
**A.** Its value is 135%.

**Q.** And the “Antitumor effect shown by T/C percentage” value ([2]; 1 mg/kg)?
**A.** Its value is 175%.

**Q.** And the “Antitumor effect shown by T/C percentage” value ([2]; 2 mg/kg)?
**A.** The value was 200%.

**Q.** And the “Antitumor effect shown by T/C percentage” value ([2]; 4 mg/kg)?
**A.** Its value is 299%.

**Q.** And the “Antitumor effect shown by T/C percentage” value ([2]; 8 mg/kg)?
**A.** Its value is 130%.

**Q.** What about the Solubility in water of the same compound?
**A.** Its Solubility in water is over 1500 µg/mL.

**Q.** For `CCC(C(=O)[O-])C(=O)[O-].NCC1(N)CCCCC1.[Pt+2]` [compound 17, cis-2-Ethylmalonato-1-amino-1-aminomethyl cyclohexane platinum], which Solubility in water [3] is on record?
**A.** Its Solubility in water is 8000 µg/mL.

**Q.** Which IC50 [4] does the source give for `NCC1(N)CCCC1.[Cl][Pt][Cl]` [compound 18, cis-Dichloro-1-amino-1-aminomethylcyclopentane platinum] here?
**A.** Its IC50 is 0.02 µg/mL.

**Q.** And the “Antitumor effect shown by T/C percentage” value ([2]; 0.5 mg/kg)?
**A.** The value was 179%.

**Q.** What about the “Antitumor effect shown by T/C percentage” value ([2]; 1 mg/kg) of the same compound?
**A.** The value was 226%.

**Q.** And the “Antitumor effect shown by T/C percentage” value ([2]; 2 mg/kg)?
**A.** Its value is 344%.

**Q.** And the “Antitumor effect shown by T/C percentage” value ([2]; 4 mg/kg)?
**A.** Its value is 141%.

**Q.** What about the “Antitumor effect shown by T/C percentage” value ([2]; 8 mg/kg) of the same compound?
**A.** Its value is 92%.

**Q.** With `NCC1(N)CCCC1.[OH][Pt]([OH])([Cl])[Cl]` [compound 19, cis-Dichloro-trans-dihydroxy-1-amino-1-aminomethylcyclopentane platinum] as the compound, how does the IC50 [4] read?
**A.** The IC50 was 0.60 µg/mL.

**Q.** What about the “Antitumor effect shown by T/C percentage” value ([2]; 4 mg/kg) of the same compound?
**A.** Its value is 138%.

**Q.** What about the “Antitumor effect shown by T/C percentage” value ([2]; 8 mg/kg) of the same compound?
**A.** The value was 174%.

**Q.** And the “Antitumor effect shown by T/C percentage” value ([2]; 16 mg/kg)?
**A.** The value was 323%.

**Q.** What about the “Antitumor effect shown by T/C percentage” value ([2]; 32 mg/kg) of the same compound?
**A.** The value was 113%.

**Q.** What about the “Antitumor effect shown by T/C percentage” value ([2]; 64 mg/kg) of the same compound?
**A.** The value was 80%.

**Q.** For `[Cl][Pt]1([Cl])([Cl])([Cl])[NH]CC2(CCCC2)[NH]1` [compound 20, cis-Tetrachloro-1-amino-1-aminomethyl cyclopentane platinum], which Solubility in water is on record?
**A.** Its Solubility in water is 18000 µg/mL.

**Q.** For `NCC1(N)CCCC1.O=C([O-])C(=O)[O-].[Pt+2]` [compound 21, cis-Oxalato-1-amino-1-aminomethylcyclopentane platinum], which “Antitumor effect shown by T/C percentage” value ([2]; 0.5 mg/kg) is on record?
**A.** The value was 124%.

**Q.** What about the “Antitumor effect shown by T/C percentage” value ([2]; 1 mg/kg) of the same compound?
**A.** Its value is 141%.

**Q.** And the “Antitumor effect shown by T/C percentage” value ([2]; 2 mg/kg)?
**A.** Its value is 161%.

**Q.** And the “Antitumor effect shown by T/C percentage” value ([2]; 4 mg/kg)?
**A.** Its value is 189%.

**Q.** And the “Antitumor effect shown by T/C percentage” value ([2]; 8 mg/kg)?
**A.** The value was 166%.

**Q.** For `NCC1(N)CCCC1.O=C([O-])C(O)C(=O)[O-].[Pt+2]` [compound 23, cis-2-Hydroxymalonato-1-amino-1-aminomethylcyclopentane platinum], which Solubility in water is on record?
**A.** The Solubility in water was 5000 µg/mL.

**Q.** With “cis-Dichloro-1,2-diamino-2-ethylbutane platinum [compound 5]” as the compound, how does the “Antitumor effect shown by T/C percentage” value ([2]; 0.5 mg/kg) read?
**A.** The value was 135%.

**Q.** And the “Antitumor effect shown by T/C percentage” value ([2]; 1 mg/kg)?
**A.** The value was 181%.

**Q.** What about the “Antitumor effect shown by T/C percentage” value ([2]; 2 mg/kg) of the same compound?
**A.** The value was 291%.

**Q.** What about the “Antitumor effect shown by T/C percentage” value ([2]; 4 mg/kg) of the same compound?
**A.** Its value is 199%.

**Q.** What about the “Antitumor effect shown by T/C percentage” value ([2]; 8 mg/kg) of the same compound?
**A.** Its value is 82%.

**Q.** What about the Solubility in water of the same compound?
**A.** The Solubility in water was over 2500 µg/mL.

**Q.** With “cis-Oxalato-1-amino-1-aminomethylcyclohexane platinum [compound 13]” as the compound, how does the IC50 [4] read?
**A.** Its IC50 is 0.021 µg/mL.

**Q.** What about the “Antitumor effect shown by T/C percentage” value ([2]; 0.5 mg/kg) of the same compound?
**A.** Its value is 146%.

**Q.** And the “Antitumor effect shown by T/C percentage” value ([2]; 1 mg/kg)?
**A.** The value was 188%.

**Q.** And the “Antitumor effect shown by T/C percentage” value ([2]; 2 mg/kg)?
**A.** Its value is 296%.

**Q.** And the “Antitumor effect shown by T/C percentage” value ([2]; 4 mg/kg)?
**A.** Its value is 230%.

**Q.** What about the “Antitumor effect shown by T/C percentage” value ([2]; 8 mg/kg) of the same compound?
**A.** Its value is 218%.

**Q.** What about the Solubility in water of the same compound?
**A.** Its Solubility in water is over 2500 µg/mL.

**Q.** For “cis-bis(Pyruvato)-1-amino-1-aminomethylcyclohexane platinum [compound 16]”, which Solubility in water is on record?
**A.** The Solubility in water was over 2000 µg/mL.
